Reference: patent US20050096370A1, “Method for inhibiting tumor angiogenesis and tumor growth” (Bizbiotech Co., Ltd., priority 2003, published 2005)

Columns and labels:
SiHa cervical carcinoma = SiHa cervical carcinoma xenograft tumor growth in nude mice; type: in vivo; conditions: YC-1 30 μg/g daily i.p. 2 weeks, P<0.01
Protocol: (§1) Male nude mice were injected subcutaneously in the flank with 5×10^6 viable Hep3B hepatoma (A), NCI-H87 gastric carcinoma (B), SiHa cervical carcinoma (C), SK-N-MC neuroblastoma (E), or Caki-I renal carcinoma (F) cells. […] Tumor size was measured over time. […] Differences between tumor sizes in the vehicle- and YC-1-treated groups for mice with Hep3B tumors were compared using ANOVA and Duncan's multiple range tests. * denotes P<0.001 relative to the control. Differences between tumor sizes in the vehicle and YC-1-treated groups for mice with other tumors (B-E) were compared using a Mann-Whitney U test. Each number beneath the error bar represents the P value of the difference relative to the control.
(§2) Male nude (BALB/cAnNC˜-nu/nu) mice were purchased from Charles River Japan Inc. (Shin-Yokohama, JAPAN). The animals were housed in a specific pathogen-free room under controlled temperature and humidity. All animal procedures were performed according to the established procedures of the Seoul National University Laboratory Animal Maintenance Manual. Eighty mice aged 7-8 weeks were injected with tumor cells for the xenograft experiments. […]
(§3) Tumors were measured every 2 or 3 days with calipers in two dimensions and the tumor volumes were calculated using the formula: Volume=axb2/2, where a is the width at the widest point of the tumor and h is the width perpendicular to a. […]

Caki-1 renal carcinoma = Caki-1 renal carcinoma xenograft tumor growth in nude mice; type: in vivo; conditions: YC-1 30 μg/g daily i.p. 2 weeks, P<0.01
Protocol: as §1, §2, §3

[1] = test system: HIF-1-regulated genes (VEGF, aldolase A, enolase 1); experiment: RT-PCR of HIF-1-regulated gene mRNA in Hep3B xenografts; type: in vivo, nude mice; conditions: 30 μg/g daily i.p. 2 weeks
Protocol: Male nude mice were injected subcutaneously in the flank with 5×10^6 viable Hep3B cells. […] After the last treatment, the mice were euthanized, the tumors removed and lysates prepared for mRNA analysis. The mRNA levels of VEGF, aldolase A, enolase 1, and β-actin were measured by semi-quantitative RT-PCR. The quality of the extracted RNAs was verified by identifying the 18S ribosomal RNA (rRNA) on a 1% denaturing agarose gel.
(§4) The quality of the extracted RNAs was verified by identifying the 18S ribosomal RNA (rRNA) on a 1% denaturing agarose gel. VEGF, aldolase A and enolase 1 mRNA levels were also lower in YC-1-treated tumors than in vehicle-treated tumors one experiment. Results are expressed as the mean and 95% confidence intervals of 4 separate experiments.

[2] = test system: human cancer xenografts (Hep3B, NCI-H87, SiHa, SK-N-MC, Caki-1); experiment: counts of HIF-1α-positive cells and CD31-positive vessels in xenograft tumor sections; type: in vivo, nude mice; conditions: regardless of cell origin, treated 2 weeks, P<0.01
Protocol: FIG. 10 is a histogram showing HIF-1α expression detected by immunohistochemistry in human cancer xenografts derived from Hep3B hepatoma, NCI-H87 gastric carcinoma, SiHa cervical carcinoma, SK-N-MC neuroblastoma, or Caki-1 renal carcinoma cells. Male nude mice were injected subcutaneously in the flank with 5×10^6 viable tumor cells. […] After the last treatment, the mice were euthanized, the tumors removed, fixed with formalin, embedded in paraffin and processed for hinmunohistochemistry to detect HIF-1α-positive cells. […] Each bar represents the mean with lower or upper 95% confidence interval. Differences between treatment groups were compared using a Mann-Whitney U test. […]
FIG. 11 is a histogram showing vascular density detected by immunohistochemistry in human cancer xenografts derived from Hep3B hepatoma, NCI-H87 gastric carcinoma, SiHa cervical carcinoma, SK-N-MC neuroblastoma, or Caki-1 renal carcinoma cells. […]
We further quantified the numbers of HIF-1α-positive cells and CD31-positive vessels in tumor sections from vehicle- and YC-1-treated mice. […] The expression of HIF-1α and the vessel density were measured by counting the numbers of immunopositive cells and vessel profiles (identified by CD31 staining) per mm^2 under microscopic images. We analyzed ten or more different lesions per xenograft tumor.

[3] = test system: natural killer (NK) cell activity; experiment: NK cell activity of splenic lymphocytes from treated mice (51Cr release from YAC-1 cells); type: in vivo, nude mice; conditions: 30 μg/g daily i.p. for 2 weeks
Protocol: (§5) The lymphocytes were then incubated at the indicated effectontarget cell (E:T) ratios with ^51Cr-labeled YAC-1 cells (1×10^4). After 4 hours, the amount of radioactivity in the culture supernatants was measured with a gamma counter. […] Splenic lymphocytes were then isolated and tested for NK cell activity. The result is expressed as the mean of four separate experiments with 95% confidence intervals.
(§6) Splenic lymphocytes were isolated from each mouse and tested immediately for NK cell activity. The spontaneous release of ^51Cr from YAC-1 cells was usually lower than 10% of the total ^51Cr loaded. NK cell activity was calculated as follows: {(experimental release−spontaneous release)/(total release−spontaneous release)}×100. Each assay was repeated three times and the average value is the result from one experiment. Results are expressed as the mean and 95% confidence intervals of 4 separate experiments.

[4] = test system: NCI-H87 gastric carcinoma; experiment: NCI-H87 gastric carcinoma xenograft tumor growth in nude mice; type: in vivo; conditions: YC-1 30 μg/g daily i.p. 2 weeks, P<0.01
Protocol: as §1, §2, §3

SK-N-MC neuroblastoma = SK-N-MC neuroblastoma xenograft tumor growth in nude mice; type: in vivo; conditions: YC-1 30 μg/g daily i.p. 2 weeks, P<0.01
Protocol: as §1, §2, §3

[5] = test system: natural killer (NK) cell activity; experiment: NK cell activity of splenic lymphocytes incubated with YC-1 in vitro (51Cr release from YAC-1 cells); type: cell-based, nude mice; conditions: 24 hours
Protocol: as §5, §4, §6

## OCc1ccc(-c2nn(Cc3ccccc3)c3ccccc23)o1 [YC-1, 3-(5′-hydroxymethyl-2′-furyl)-1-benzylindazole]
SiHa cervical carcinoma
  tumor size versus vehicle: statistically significantly smaller
Caki-1 renal carcinoma
  tumor size versus vehicle: statistically significantly smaller
[1]
  VEGF, aldolase A and enolase 1 mRNA levels in tumors versus vehicle: lower
[2]
  blood vessel formation (CD31 vessel profiles per mm^2): statistically significantly inhibited
  expression of HIF-1α protein (immunopositive cells per mm^2): statistically significantly inhibited
[3]
  cytolytic activity versus vehicle-treated mice: comparable
[4]
  tumor size versus vehicle: statistically significantly smaller
SK-N-MC neuroblastoma
  tumor size versus vehicle: statistically significantly smaller
[5]
  cytolytic activity against YAC-1 cells versus lymphocytes incubated without YC-1: comparable
